From ChEMBL document CHEMBL1146302, “Highly constrained bicyclic VLA-4 antagonists” (Bioorg Med Chem Lett, 2007) come the findings set out here.

Series [1] deals with T1, Integrin alpha-4/beta-1 (Homo sapiens, UniProt P05556+P13612). The series can be described thus: Binding affinity to human VLA4 alpha4beta1 in Jurkat cells. In kind it is cell-based.
For a further series, the target named is T2, Integrin alpha-4/beta-7 (Homo sapiens, UniProt P13612+P26010).
T2 sequence (P13612 whole entry): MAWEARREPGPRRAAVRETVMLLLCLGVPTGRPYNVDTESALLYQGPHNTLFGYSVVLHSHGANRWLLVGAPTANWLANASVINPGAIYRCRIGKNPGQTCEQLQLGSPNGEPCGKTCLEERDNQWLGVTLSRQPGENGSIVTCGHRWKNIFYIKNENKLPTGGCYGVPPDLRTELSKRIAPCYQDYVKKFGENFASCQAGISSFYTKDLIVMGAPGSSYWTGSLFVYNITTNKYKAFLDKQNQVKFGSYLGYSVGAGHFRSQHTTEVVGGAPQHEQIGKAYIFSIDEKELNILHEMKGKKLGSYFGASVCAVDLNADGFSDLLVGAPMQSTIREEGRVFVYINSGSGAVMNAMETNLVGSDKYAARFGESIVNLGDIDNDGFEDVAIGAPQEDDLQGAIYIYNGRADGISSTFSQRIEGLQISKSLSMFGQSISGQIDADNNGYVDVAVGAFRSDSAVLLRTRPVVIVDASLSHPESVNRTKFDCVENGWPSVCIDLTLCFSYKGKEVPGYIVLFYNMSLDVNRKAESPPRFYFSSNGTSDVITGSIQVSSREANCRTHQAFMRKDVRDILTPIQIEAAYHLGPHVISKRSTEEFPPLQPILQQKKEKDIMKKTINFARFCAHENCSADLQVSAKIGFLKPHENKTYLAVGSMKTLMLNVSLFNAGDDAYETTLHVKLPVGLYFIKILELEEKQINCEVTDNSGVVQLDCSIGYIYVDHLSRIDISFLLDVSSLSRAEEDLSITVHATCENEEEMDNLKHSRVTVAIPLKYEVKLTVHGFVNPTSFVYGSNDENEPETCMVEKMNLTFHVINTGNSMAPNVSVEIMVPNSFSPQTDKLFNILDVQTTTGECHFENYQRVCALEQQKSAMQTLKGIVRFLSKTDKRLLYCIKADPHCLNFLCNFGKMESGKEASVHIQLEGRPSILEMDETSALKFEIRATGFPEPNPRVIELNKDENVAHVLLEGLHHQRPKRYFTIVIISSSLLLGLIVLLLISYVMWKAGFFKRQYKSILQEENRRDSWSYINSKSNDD
T2 sequence (P26010 whole entry): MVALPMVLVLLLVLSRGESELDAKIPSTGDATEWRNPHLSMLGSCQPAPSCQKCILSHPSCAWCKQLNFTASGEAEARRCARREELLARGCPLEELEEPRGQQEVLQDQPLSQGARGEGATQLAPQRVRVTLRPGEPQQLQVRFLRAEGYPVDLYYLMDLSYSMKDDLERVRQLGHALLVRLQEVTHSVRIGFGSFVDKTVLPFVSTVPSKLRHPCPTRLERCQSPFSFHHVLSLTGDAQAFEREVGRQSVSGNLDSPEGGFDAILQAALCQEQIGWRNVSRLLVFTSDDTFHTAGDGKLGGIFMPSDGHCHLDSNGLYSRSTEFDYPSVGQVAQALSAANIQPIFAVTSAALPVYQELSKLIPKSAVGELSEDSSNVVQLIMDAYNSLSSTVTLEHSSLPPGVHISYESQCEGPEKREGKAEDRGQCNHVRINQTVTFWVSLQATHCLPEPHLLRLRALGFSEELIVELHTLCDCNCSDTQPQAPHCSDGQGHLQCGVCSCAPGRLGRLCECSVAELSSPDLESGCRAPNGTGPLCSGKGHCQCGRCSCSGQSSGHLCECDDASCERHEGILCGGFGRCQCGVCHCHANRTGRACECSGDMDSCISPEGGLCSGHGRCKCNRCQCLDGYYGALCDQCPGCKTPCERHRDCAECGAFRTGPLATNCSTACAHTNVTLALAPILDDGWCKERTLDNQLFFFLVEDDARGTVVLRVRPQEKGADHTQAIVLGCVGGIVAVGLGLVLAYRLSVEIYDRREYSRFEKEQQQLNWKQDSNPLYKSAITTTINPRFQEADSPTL
The series is described as follows: Binding affinity to human integrin alpha-4-beta-7 in Jurkat cells. In kind it is cell-based.

Series [2] is described as follows: Clearance in Sprague-Dawley rat plasma at 1 mg/kg, iv by cassette-dosing assay. In kind it is ADME, organism-based. Details: dose 1 mg/kg, route intravenous.
Series [3] in a line: Half life in Sprague-Dawley rat plasma at 1 mg/kg, iv by cassette-dosing assay. Details: dose 1 mg/kg, route intravenous. In kind it is ADME, organism-based.
A short description of series [4]: Half life in Sprague-Dawley rat plasma at 2 mg/kg, po by cassette-dosing assay. On the set-up: dose 2 mg/kg, route oral. Type of series: ADME, organism-based.
Series [5] is described as follows: Bioavailability in Sprague-Dawley rat at 2 mg/kg, po by cassette-dosing assay. In kind it is ADME, organism-based. To be noted: in vivo.
The target in series [6] is T1, Integrin alpha-4/beta-1. The series is described as follows: Displacement of [125I]VCAM-Ig from human VLA4 alpha-4-beta-1 in Jurkat cells at 100 uM. Type of series: cell-based.

Calls of active or inactive are those of the source. The rule behind the calls is not given here.

T1 sequence (P05556 whole entry, one chain of several): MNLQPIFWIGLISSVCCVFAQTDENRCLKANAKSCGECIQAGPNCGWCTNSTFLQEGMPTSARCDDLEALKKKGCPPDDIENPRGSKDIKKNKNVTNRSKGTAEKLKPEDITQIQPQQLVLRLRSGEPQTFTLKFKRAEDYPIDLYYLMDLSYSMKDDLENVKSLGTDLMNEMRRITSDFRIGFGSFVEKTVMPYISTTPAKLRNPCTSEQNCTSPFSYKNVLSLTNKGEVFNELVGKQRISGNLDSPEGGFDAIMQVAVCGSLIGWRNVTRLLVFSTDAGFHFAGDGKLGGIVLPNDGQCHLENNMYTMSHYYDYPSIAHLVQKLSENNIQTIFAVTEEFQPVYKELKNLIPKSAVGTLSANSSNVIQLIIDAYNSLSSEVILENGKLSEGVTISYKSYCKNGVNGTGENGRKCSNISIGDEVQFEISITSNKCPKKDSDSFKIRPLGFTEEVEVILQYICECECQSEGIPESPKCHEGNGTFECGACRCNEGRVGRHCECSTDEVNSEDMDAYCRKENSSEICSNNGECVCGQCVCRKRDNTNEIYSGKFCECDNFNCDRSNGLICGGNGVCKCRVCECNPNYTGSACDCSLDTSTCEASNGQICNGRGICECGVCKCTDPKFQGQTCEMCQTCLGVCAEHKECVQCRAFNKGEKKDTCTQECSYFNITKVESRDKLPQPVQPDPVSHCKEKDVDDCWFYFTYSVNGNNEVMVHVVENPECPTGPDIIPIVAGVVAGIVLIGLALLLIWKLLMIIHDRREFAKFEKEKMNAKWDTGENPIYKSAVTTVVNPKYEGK

As usually defined, the IC50 is the concentration that inhibits the measured activity by half. A high value points to lower potency. The clearance is the volume of plasma or blood freed of the substance per unit of time. Read a high clearance as efficient removal. A word on the half-life: it is how long it takes for the measured level to halve. A higher half-life goes with slow decline. A word on the bioavailability: it is the share of a dose that reaches the circulation, judged against a reference dose that is usually intravenous. For `O=C(O)[C@H]1C2CCC(C2)[C@@H]1NC(=O)[C@@H]1CCCN1S(=O)(=O)c1cc(Cl)cc(Cl)c1` (stereo partly drawn), the half-maximal inhibitory concentration (IC50) on Integrin alpha-4/beta-1 [1] was found to be 0.054 µM; at Integrin alpha-4/beta-7, 13 µM. This molecule showed a clearance in series [2] of 3.3 mL/min/kg. In addition, the half-life in series [3] is 1.9 h; in series [4], 1.7 h. This molecule also displayed a bioavailability in series [5] of 49%.

At Integrin alpha-4/beta-1 [1], `O=C(O)[C@@H]1C2CCC(C2)[C@@H]1NC(=O)[C@@H]1CCCN1S(=O)(=O)c1cc(Cl)cc(Cl)c1` (stereo partly drawn) registered an IC50 of 1.6 µM. On to `O=C(O)C1C2CCC(C2)[C@@H]1NC(=O)[C@@H]1CCCN1S(=O)(=O)c1cc(Cl)cc(Cl)c1` (stereo partly drawn) [listing 1 of 2 here], for which the IC50 at Integrin alpha-4/beta-1 [1] was found to be 0.322 µM. As to `O=C(CN(C1CCCCC1)S(=O)(=O)c1cc(Cl)cc(Cl)c1)NC1CCCCC1C(=O)O` (stereo not drawn), the result on Integrin alpha-4/beta-1 [6] was inactive.

With `O=C(O)Cc1ccccc1NC(=O)[C@@H]1CCCN1S(=O)(=O)c1cc(Cl)cc(Cl)c1`, on Integrin alpha-4/beta-1 [6], the Activity was 11%. Consider `O=C(O)C1C2C=CC(C2)[C@@H]1NC(=O)[C@@H]1CCCN1S(=O)(=O)c1cc(Cl)cc(Cl)c1` (stereo partly drawn) [listing 1 of 2 here], for which the half-maximal inhibitory concentration (IC50) at Integrin alpha-4/beta-1 [1] was 2.16 µM. In other words, the single-digit micromolar range. On the same count and under the same terms, under `O=C(O)[C@H]1CCCC[C@H]1NC(=O)[C@@H]1CCCN1S(=O)(=O)c1cc(Cl)cc(Cl)c1` stands 9.46 µM; under `O=C(O)[C@H]1CCCC[C@@H]1NC(=O)[C@@H]1CCCN1S(=O)(=O)c1cc(Cl)cc(Cl)c1`, 0.525 µM. Consider `O=C(O)C1C2C=CC(C2)[C@@H]1NC(=O)[C@@H]1CCCN1S(=O)(=O)c1cc(Cl)cc(Cl)c1` (stereo partly drawn) [listing 2 of 2 here], for which the IC50 at Integrin alpha-4/beta-1 [1] was 0.657 µM.

On to `O=C(O)C1C2CCC(C2)[C@@H]1NC(=O)[C@@H]1CCCN1S(=O)(=O)c1cc(Cl)cc(Cl)c1` (stereo partly drawn) [listing 2 of 2 here], for which the 50% inhibitory concentration (IC50) at Integrin alpha-4/beta-1 [1] turned out to be 0.095 µM.

`O=C(O)C1C2CCC(C2)[C@H]1NC(=O)[C@@H]1CCCN1S(=O)(=O)c1cc(Cl)cc(Cl)c1` (stereo partly drawn) [listing 1 of 2 here]: the IC50 on Integrin alpha-4/beta-1 [1] is 1.49 µM. At Integrin alpha-4/beta-1 [6], `O=C(O)c1ccccc1NC(=O)[C@@H]1CCCN1S(=O)(=O)c1cc(Cl)cc(Cl)c1` displayed an Activity of 0%.

With `CC(C)[C@@H](C(=O)NC1CCCCC1C(=O)O)N(C)S(=O)(=O)c1cc(Cl)cc(Cl)c1` (stereo partly drawn), the IC50 at Integrin alpha-4/beta-1 [1] was 0.462 µM. As to `O=C(O)C1C2CCC(C2)[C@H]1NC(=O)[C@@H]1CCCN1S(=O)(=O)c1cc(Cl)cc(Cl)c1` (stereo partly drawn) [listing 2 of 2 here], the concentration for half-maximal inhibition (IC50) at Integrin alpha-4/beta-1 [1] is 0.299 µM. The molecule `O=C(O)c1cccc(NC(=O)[C@@H]2CCCN2S(=O)(=O)c2cc(Cl)cc(Cl)c2)c1` registered an Activity on Integrin alpha-4/beta-1 [6] of 2%.

Consider `O=C(O)Cc1cccc(NC(=O)[C@@H]2CCCN2S(=O)(=O)c2cc(Cl)cc(Cl)c2)c1`, for which the Activity at Integrin alpha-4/beta-1 [6] was 43%. As for `O=C(O)[C@H]1C2CCC(O2)[C@@H]1NC(=O)[C@@H]1CCCN1S(=O)(=O)c1cc(Cl)cc(Cl)c1` (stereo partly drawn), the half-maximal inhibitory concentration (IC50) at Integrin alpha-4/beta-1 [1] was 25.6 µM. At Integrin alpha-4/beta-1 [1], `O=C(O)[C@H]1C2CCC(CC2)[C@@H]1NC(=O)[C@@H]1CCCN1S(=O)(=O)c1cc(Cl)cc(Cl)c1` came in with an IC50 of 2.74 µM.
